Laboratory results reported in PubChem BioAssay (NCI).
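Exposure lasted 48 hours, with cells grown in 96-well plates and compounds tested at five concentrations. TGI: concentration producing complete growth inhibition.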

Key:
Assay in all cases: NCI anticancer screen, dose series, 48 h
[1] = test system: 786-0 renal
[2] = test system: A498 renal
[3] = test system: A549 NSCLC
[4] = test system: ACHN renal
[5] = test system: BT-549 breast
[6] = test system: CAKI-1 renal
[7] = test system: CCRF-CEM leukemia
[8] = test system: COLO 205 colon
[9] = test system: DU-145 prostate
[10] = test system: EKVX NSCLC
[11] = test system: HCC-2998 colon
[12] = test system: HCT-116 colon
[13] = test system: HCT-15 colon
[14] = test system: HOP-62 NSCLC
[15] = test system: HS 578T breast
[16] = test system: HT29 colon
[17] = test system: IGROV1 ovarian
[18] = test system: K-562 leukemia
[19] = test system: KM12 colon
[20] = test system: LOX IMVI melanoma
[21] = test system: M14 melanoma
[22] = test system: MCF7 breast
[23] = test system: MDA-MB-231 breast
[24] = test system: MDA-MB-435
[25] = test system: MDA-N
[26] = test system: MOLT-4 leukemia
[27] = test system: NCI-H226 lung
[28] = test system: NCI-H23 lung
[29] = test system: NCI-H460 lung
[30] = test system: NCI-H522 lung
[31] = test system: NCI/ADR-RES ovarian
[32] = test system: OVCAR-3 ovarian
[33] = test system: OVCAR-4 ovarian
[34] = test system: OVCAR-5 ovarian
[35] = test system: OVCAR-8 ovarian
[36] = test system: PC-3 prostate
[37] = test system: RPMI-8226 leukemia
[38] = test system: RXF 393 renal
[39] = test system: SF-268 CNS
[40] = test system: SF-295 CNS
[41] = test system: SF-539 CNS
[42] = test system: SK-MEL-2 melanoma
[43] = test system: SK-MEL-5 melanoma
[44] = test system: SK-OV-3 ovarian
[45] = test system: SN12C renal
[46] = test system: SNB-19 CNS
[47] = test system: SNB-75 CNS
[48] = test system: SW-620 colon
[49] = test system: T-47D breast
[50] = test system: TK-10 renal
[51] = test system: U251 CNS
[52] = test system: UACC-257 melanoma
[53] = test system: UACC-62 melanoma
[54] = test system: UO-31 renal

Measured: TGI

CC(=O)NC1C(OCC(=O)NCCNc2ccc([N+](=O)[O-])c3[nH]c4ccccc4c(=O)c23)C(O)C(CO)OC1(C)OCc1ccccc1 (centres undefined)
> 100 µM: all assays above
